Reference: PubChem BioAssay AID1963837 (Molecular Pharmacology Branch, DTP, NCI, 2024)
Values joined by “and” are separate entries in the source; they are usually repeats but may differ in a detail not shown here. Equal entries are not always repeated.

System: 843126-344-R-J1-PDC complex spheroid viability
Assay: Anticancer human tumor 843126-344-R-J1-PDC patient-derived melanoma cell line growth inhibition [POLQ]
Settings: for viability, T/C: stronger effect = lower value; active = viability on the fitted dose curve at most 10% of control; inactive = the rest
Method: Multicellular complex tumor spheroid response to Polymerase (POL) inhibitors (novobiocin, ART-558, RP6685) in combination with a variety of drugs and investigational agents in selected tumor cell lines
The POL inhibitors (novobiocin, ART-558, and RP6685) were evaluated both individually and in combination with standard of care and investigational anticancer small molecules within a complex spheroid model of solid tumors. . Complex spheroids include a stromal component modeled by human endothelial cells (HUVEC) and fibroblasts modeled by human mesenchymal stem cells (MSCs). The concentration ranges selected for each drug and investigational agent were based upon clinically achievable concentrations if the clinical Cmax of the agent was known.
Compounds. The drugs and investigational agents: novobiocin (NSC847541), ART-558 (NSC835418), RP-6685 (NSC848927), peposertib (NSC802822), ceralasertib (NSC780249), elimusertib (NSC800525), camonsertib (NSC841442), AZD-1390 (NSC803789), olaparib (NSC753686), talazoparib (NSC767125), rucaparib (NSC756644), sotorasib (NSC818433), MRTX-1133 (NSC836407), SN-38 (NSC673596), topotecan (NSC609699), epotoside (NSC141540), doxorubicin (NSC123127), gemcitabine (NSC613327), 5-fluorouracil (NSC19893), paclitaxel (NSC125973), vemurafenib (NSC761431), MSA-2 (NSC828583), SN-011 (NSC837082), adavosertib (NSC754352), prexasertib (NSC758257), carboplatin (NSC241240) and oxaliplatin (NSC266046), were obtained from the National Cancer Institute (NCI) Developmental Therapeutics Program Chemical Repository (21). The FDA-approved anticancer drug set is available from the Developmental Therapeutics Program at https://dtp.cancer.gov/organization/dscb/obtaining/. […] The stock solutions were prepared in dimethyl sulfoxide (DMSO, Sigma-Aldrich, St. Louis, MO, cat. D2650), except for the platinum compounds which were prepared in saline (Quality Biological, Gaithersburg, MD, cat. 114-055-101), at 800-fold the tested concentration and stored at -70 degrees C prior to their use. All drugs and investigational agents were tested over a range starting from a high concentration at or near the clinical Cmax and decreasing in half-log increments. If the clinical Cmax for an agent had not been determined, the highest concentration tested was 10 microM, except for SN-38, which was tested at a high concentration of 1 microM.
Cell Culture. All cells were maintained in an incubator at 37 degrees C and 5% CO2 with 95% humidity. The PDC lines were cultured according to standard operating procedures established by the NCI PDMR (https://pdmr.cancer.gov). Table 3 of the manuscript, lists the cell lines along with the number of the three cell types plated to form the mct-spheroids and media for tumor cell growth. After thawing, all PDC lines, except 997537-175-T-J1-PDC and 415267-285-R-J2-PDC, were cultured in Matrigel-coated flasks prepared with a working solution of 1X Ham's F-12 nutrient mix, without supplementation (Thermo Fisher Scientific, cat. 11765054), 100 U/mL penicillin-streptomycin (Thermo Fisher Scientific, cat. 15140122), and 2.5% Matrigel (Corning Inc., Corning, NY, cat. 354248) for the first three passages. The two PDC lines 997537-175-T-J1-PDC and 415267-285-R-J2-PDC were cultured on uncoated flasks. The 857933-349-R-J2-PDC line was cultured in 6C/Colon 1B media containing advanced DMEM/F-12 (Thermo Fisher Scientific, cat. 12634028), 10 mM HEPES (Thermo Fisher Scientific, cat. 15630080), 1X GlutaMAX supplement (Thermo Fisher Scientific, cat. 35050061), 0.1 mg/mL primocin (InvivoGen, San Diego, CA, cat. ant-pm-2), 10% defined fetal bovine serum, heat inactivated (HyClone Laboratories Inc., Logan, UT, cat. SH30070.03HI), 50% L-WRN conditioned media (ATCC, cat. CRL-3276), 1.25 mM N-Acetyl-L-cysteine (Sigma-Aldrich, cat. A9165), 10 mM nicotinamide (Sigma-Aldrich, cat. N0636), 1X B-27 supplement (Thermo Fisher Scientific, cat. 17504044), 1X N-2 supplement (Thermo Fisher Scientific, cat. […]

[1] = curve of first compound, second compound 0.0316 µM
[2] = curve of first compound, second compound 0.1 µM
[3] = curve of first compound, second compound 0.316 µM
[4] = curve of first compound, second compound 1 µM
[5] = curve of first compound, second compound 3.16 µM
[6] = curve of first compound, second compound 10 µM
[7] = second compound 0.0316 µM, first compound 0.0316 µM
[8] = second compound 0.0316 µM, first compound 0.1 µM
[9] = second compound 0.0316 µM, first compound 0.316 µM
[10] = second compound 0.0316 µM, first compound 1 µM
[11] = second compound 0.0316 µM, first compound 3.16 µM
[12] = second compound 0.0316 µM, first compound 10 µM
[13] = second compound 0.1 µM, first compound 0.0316 µM
[14] = second compound 0.1 µM, first compound 0.1 µM
[15] = second compound 0.1 µM, first compound 0.316 µM
[16] = second compound 0.1 µM, first compound 1 µM
[17] = second compound 0.1 µM, first compound 3.16 µM
[18] = second compound 0.1 µM, first compound 10 µM
[19] = second compound 0.316 µM, first compound 0.0316 µM
[20] = second compound 0.316 µM, first compound 0.1 µM
[21] = second compound 0.316 µM, first compound 0.316 µM
[22] = second compound 0.316 µM, first compound 1 µM
[23] = second compound 0.316 µM, first compound 3.16 µM
[24] = second compound 0.316 µM, first compound 10 µM
[25] = second compound 1 µM, first compound 0.0316 µM
[26] = second compound 1 µM, first compound 0.1 µM
[27] = second compound 1 µM, first compound 0.316 µM
[28] = second compound 1 µM, first compound 1 µM
[29] = second compound 1 µM, first compound 3.16 µM
[30] = second compound 1 µM, first compound 10 µM
[31] = second compound 3.16 µM, first compound 0.0316 µM
[32] = second compound 3.16 µM, first compound 0.1 µM
[33] = second compound 3.16 µM, first compound 0.316 µM
[34] = second compound 3.16 µM, first compound 1 µM
[35] = second compound 3.16 µM, first compound 3.16 µM
[36] = second compound 3.16 µM, first compound 10 µM
[37] = second compound 10 µM, first compound 0.0316 µM
[38] = second compound 10 µM, first compound 0.1 µM
[39] = second compound 10 µM, first compound 0.316 µM
[40] = second compound 10 µM, first compound 1 µM
[41] = second compound 10 µM, first compound 3.16 µM
[42] = second compound 10 µM, first compound 10 µM
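Throughout, for viability, T/C: spheroids exposed to drugs for seven days before readout.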

COc1cc(C2c3cc4c(cc3C(OC3OC5COC(C)OC5C(O)C3O)C3COC(=O)C23)OCO4)cc(OC)c1O (stereo unspecified) + Cc1cccc(N(C)C(=O)C2C(O)CCN2c2nc(C)cc(C(F)(F)F)c2C#N)c1
8.76 µM: IC50 [1]
6.01 µM: IC50 [3]
5.47 µM: IC50 [5]
3.78 µM: IC50 [6]
8.26 µM: IC50 [2]
inactive: viability, T/C [7] 86.5% | viability, T/C [8] 81.5% | viability, T/C [9] 77.9% | viability, T/C [10] 92.3% | viability, T/C [11] 55.3% | viability, T/C [12] 49.3% | viability, T/C [13] 83.2% | viability, T/C [14] 103% | viability, T/C [15] 100% | viability, T/C [16] 68.9% | viability, T/C [17] 72.8% | viability, T/C [18] 45.5% | viability, T/C [19] 82.1% | viability, T/C [20] 84.1% | viability, T/C [21] 92.7% | viability, T/C [22] 71.8% | viability, T/C [23] 61.2% | viability, T/C [24] 42.1% | viability, T/C [25] 86.1% | viability, T/C [26] 90.3% | viability, T/C [27] 86.6% | viability, T/C [28] 82.3% | viability, T/C [29] 56.9% | viability, T/C [30] 50.2% | viability, T/C [31] 77.9% | viability, T/C [32] 79.7% | viability, T/C [33] 84.4% | viability, T/C [34] 75.9% | viability, T/C [35] 54.2% | viability, T/C [36] 45.5% | viability, T/C [37] 84.1% | viability, T/C [38] 83.1% | viability, T/C [39] 79% | viability, T/C [40] 74% | viability, T/C [41] 50.6% | viability, T/C [42] 44.8%
> 10 µM: IC50 [4]

COc1cc(C2c3cc4c(cc3C(OC3OC5COC(C)OC5C(O)C3O)C3COC(=O)C23)OCO4)cc(OC)c1O (stereo unspecified)
inactive: viability, T/C (compound 0.0316 µM) 82.2% and 114% and 91.2% | viability, T/C (compound 0.1 µM) 95.3% and 90.7% and 102% | viability, T/C (compound 0.316 µM) 90% and 97.6% and 83.3% | viability, T/C (compound 1 µM) 90.9% and 79% and 81.2% | viability, T/C (compound 3.16 µM) 58.2% and 68.9% and 66.3% | viability, T/C (compound 10 µM) 50% and 52.2% and 41.9%
> 10 µM and 6.8 µM: IC50 (curve of compound)

O=C(Nc1ccc(O)c(NS(=O)(=O)c2ccc(F)cc2)c1)c1ccc(-c2ccccc2)cc1 + Nc1ccc(C#CCN(C(=O)Cc2ncc(C(F)(F)F)cc2C(F)(F)F)c2ccc(F)cc2)nn1
> 10 µM: IC50 [1] | IC50 [2] | IC50 [3] | IC50 [4] | IC50 [5] | IC50 [6]
inactive: viability, T/C [7] 82.5% | viability, T/C [8] 94.9% | viability, T/C [9] 91.8% | viability, T/C [10] 80.5% | viability, T/C [11] 82.2% | viability, T/C [12] 73.6% | viability, T/C [13] 91.6% | viability, T/C [14] 102% | viability, T/C [15] 82.2% | viability, T/C [16] 85.4% | viability, T/C [17] 89.1% | viability, T/C [18] 64.8% | viability, T/C [19] 100% | viability, T/C [20] 92.5% | viability, T/C [21] 98.8% | viability, T/C [22] 84.3% | viability, T/C [23] 96.3% | viability, T/C [24] 61.5% | viability, T/C [25] 98.3% | viability, T/C [26] 97.1% | viability, T/C [27] 81.3% | viability, T/C [28] 90% | viability, T/C [29] 82.2% | viability, T/C [30] 67.8% | viability, T/C [31] 92% | viability, T/C [32] 91.4% | viability, T/C [33] 89.5% | viability, T/C [34] 86.1% | viability, T/C [35] 78.8% | viability, T/C [36] 67.3% | viability, T/C [37] 82.3% | viability, T/C [38] 74.1% | viability, T/C [39] 86.9% | viability, T/C [40] 72.4% | viability, T/C [41] 80.6% | viability, T/C [42] 55.4%
